# Measured values: US11207379B2, “Peptides with anti-cancer activity” (IDP DISCOVERY PHARMA, S.L., priority 2016, dated 2021)
# How the values were obtained:
# Assay type in all cases: cell-based
# [1] = biological target: HL-60, promyeloblast (acute myelocytic leukemia, AML); assay: Viability assay (MTT, Alamar Blue, hexosaminidase), 72 h; details: HL-60 cells, read-out: EC50
# Outline: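 HL-60 seeded at 10000 cells/well in RPMI-1640/10% FBS, dosed after 24 h from 100 μM top concentration in 1:1 serial dilutions, incubated 72 h at 37° C. Viability read consecutively by MTT, Alamar Blue and hexosaminidase, normalised to untreated cells; EC50 from variable-slope sigmoidal fit, triplicates.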
# [2] = biological target: MCF-7, epithelial (breast cancer); assay: as above; details: MCF7 cells, read-out: EC50
# Outline: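 Cells seeded at 5000/well, compounds added 24 h later from 100 μM in 1:1 serial dilutions, triplicate, 72 h at 37° C. Viability read consecutively by MTT (A570), Alamar Blue fluorescence and hexosaminidase activity, normalized to untreated control = 100%; EC50 from variable-slope sigmoidal fit.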
# [3] = biological target: RAMOS, B lymphocyte (Burkitt's Lymphoma); assay: as above; details: Ramos cells, read-out: EC50
# Outline: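 Ramos cells seeded at 10000 cells/well in DMEM + 10% FBS; after 24 h, compounds added as 1:1 serial dilutions from 100 μM and incubated 72 h at 37 °C. Viability read sequentially by MTT (A570), Alamar Blue (535/590) and hexosaminidase activity, normalized to untreated cells; EC50 from variable-slope sigmoidal fit.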
# A549 cells = assay: Annexin V assay by flow cytometry; details: A549 cells
# Description: Miltenyi Biotec Annexin V-FITC Kit was used. To detect apoptosis in early stage Phosphatidylserine in plasmatic membrane localization was measured, though the calcium dependent reaction with Annexine V. Annexin V molecules were labelled with different fluorophores (FITC) and analyzed by FACS. To detect apoptosis in late stage DNA-intercalating agents, such Propidium iodide (PI) were used.
# Cells were seeded at a density range of 150000-30000 cells/well in 12 wells plates, and incubated at 37° C. in the incubator under CO2 atmosphere. After 24 h, […] A549, HL-60 and MM.1S, at IC30 and/or IC80, with compounds IDP-S09 and IL-09, in cell lines HL-60 and MM.1S with compound IDP-S04 and in cell line A549 with compounds IDP-S02 and IDP-S03. Staurosporine and compound 100258-F4 (Sigma) were used as positive control and reference compound, respectively.
# [4] = biological target: A549, epithelial (lung cancer); assay: Viability assay (MTT, Alamar Blue, hexosaminidase), 72 h; details: A549 cells, read-out: EC50
# Outline: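 A549 cells (5000/well, DMEM+10% FBS) were exposed for 72 h at 37° C. to compound, twofold serial dilutions from 100 μM, in triplicate. Viability was read consecutively by MTT (A570), Alamar Blue fluorescence and hexosaminidase activity, normalised to untreated cells. EC50 came from a variable-slope sigmoidal fit.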
substance,measurement,setting,value
RQRRNXLKRAFAXLRDQ-OH [IDP-S03],EC50,[1],~6.6 µM
same,EC50,[2],32 ± 5 µM
same,EC50,[3],~13 µM
same,"apoptosis induction (Annexin V by FACS), in words",A549 cells,apoptosis induction is detected after 4 h at both IC30 and IC80
same,EC50,[4],34 ± 6 µM
